Data: patent US20050130989A1, “N-arylheteroaromatic products compositions containing them and use thereof” (Aventis Pharma S. A., priority 2003, published 2005)
Where a name gives a salt, the structure may show the parent alone.

Target: T1, tubulin (Sus scrofa, UniProt P02550+P02554)
T1 construct: Tubulin is purified from pig brain according to published methods; from tissue; host or cells: pig brain
Assay: Evaluation of the inhibition of tubulin polymerization (turbidimetry)
Format: biochemical, pig
Settings: tubulin 10 μm (1 mg/ml), 37° C., turbidity at 350 nm; concentration that inhibits the rate of polymerization by 50%; read-out: Inhibition of tubulin polymerization IC 50 (μm)
Description: Tubulin is purified from pig brain according to published methods (Shelanski et al., 1973, Proc. Natl. Acad. Sci. USA, 70, 765-768. Weingarten et al., 1975, Proc. Natl. Acad. Sci. USA, 72, 1858-1862). Briefly, the brains are ground and centrifuged in an extraction buffer. The tubulin contained in the supernatant of the extract undergoes two successive cycles of polymerization at 37° C. and depolymerization at 4° C., before being separated from the MAPs (Microtubule Associated Proteins) by chromatography on a phosphocellulose P11 column (Whatman). The tubulin thus isolated is more than 95% pure. It is stored in a buffer known as RB/2 30% glycerol, the composition of which is 50 mM MES-NaOH [2-(N-morpholino)ethanesulfonic acid], pH 6.8; 0.25 mM MgCl2; 0.5 mM EGTA; 30% glycerol (v/v), 0.2 mM GTP (guanosine-5′-triphosphate).
The polymerization of tubulin to microtubules is monitored by turbidimetry as follows: the tubulin is adjusted to a concentration of 10 μm (1 mg/ml) in RB/2 30% glycerol buffer to which 1 mM GTP and 6 mM MgCl2 are added. The polymerization is triggered by an increase in temperature from 6° C. to 37° C. in a cuvette with an optical path length of 1 cm, placed in a UVIKON 931 spectrophotometer (Kontron) equipped with a thermostatically maintained cuvette holder. The increase in the turbidity of the solution is monitored at 350 nm.
The products are dissolved at 10 mM in DMSO and added at variable concentrations (0.5 to 10 μm) to the tubulin solution before polymerization. The IC50 value is defined as the concentration of product that inhibits the rate of polymerization by 50%.

T1 sequence (P02550 whole entry): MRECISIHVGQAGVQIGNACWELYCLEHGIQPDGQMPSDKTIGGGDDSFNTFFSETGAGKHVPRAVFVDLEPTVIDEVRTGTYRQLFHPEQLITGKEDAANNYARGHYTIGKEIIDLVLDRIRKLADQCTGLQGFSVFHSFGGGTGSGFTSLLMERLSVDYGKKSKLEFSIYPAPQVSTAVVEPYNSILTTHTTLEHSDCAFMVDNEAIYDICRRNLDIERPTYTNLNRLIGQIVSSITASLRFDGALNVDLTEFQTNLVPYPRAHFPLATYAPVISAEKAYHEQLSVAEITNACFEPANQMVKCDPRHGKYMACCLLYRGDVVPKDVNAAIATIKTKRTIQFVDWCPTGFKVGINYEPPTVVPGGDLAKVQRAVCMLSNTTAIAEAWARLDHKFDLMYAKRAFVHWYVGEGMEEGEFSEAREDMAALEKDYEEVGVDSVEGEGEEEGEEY
T1 sequence (P02554 whole entry): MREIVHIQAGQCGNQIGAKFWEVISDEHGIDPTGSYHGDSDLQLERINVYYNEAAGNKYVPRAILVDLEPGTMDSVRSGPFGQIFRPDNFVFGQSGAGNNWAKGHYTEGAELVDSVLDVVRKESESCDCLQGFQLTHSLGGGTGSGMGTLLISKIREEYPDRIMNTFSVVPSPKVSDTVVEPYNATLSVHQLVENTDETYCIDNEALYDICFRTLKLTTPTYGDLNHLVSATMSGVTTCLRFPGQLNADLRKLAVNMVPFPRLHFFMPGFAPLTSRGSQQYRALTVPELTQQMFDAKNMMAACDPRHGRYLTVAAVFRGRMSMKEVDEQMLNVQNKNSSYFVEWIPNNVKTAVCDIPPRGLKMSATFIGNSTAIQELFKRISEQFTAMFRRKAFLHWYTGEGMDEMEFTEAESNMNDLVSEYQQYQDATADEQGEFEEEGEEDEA

| Compound | IC50 |
| --- | --- |
| Cc1cc(C(=O)N2CCN(c3cccc4ccccc34)CC2)n(-c2cccc(Cl)c2)n1 [3/124] | 12 µM |
| COc1ccc(-n2nc(C)cc2C(=O)N2CCN(c3ccccc3)CC2)cc1 [3/1] | 20 µM |
| Cc1cc(C(=O)N2CCN(c3ccccc3F)CC2)n(-c2ccccc2)n1 [3/111] | 12.5 µM |
| Cc1cc(C(=O)N2CCN(c3ccc(C)c(C)c3)CC2)n(-c2ccc(F)cc2)n1 [3/103] | 21 µM |
| Cc1cccc(-n2nc(C)cc2C(=O)N2CCN(c3cccc(C)c3C)CC2)c1 [3/114] | 0.8 µM |
| COc1ccccc1N1CCN(C(=O)c2cc(C)nn2-c2ccc(C)cc2)CC1 [3/130] | < 25 µM |
| Cc1cc(C(=O)N2CCN(c3ccc4c(c3)OCCO4)CC2)n(-c2cccc(F)c2)n1 [3/100] | < 25 µM |
| Cc1cc(C(=O)N2CCN(c3cc(Cl)ccc3C)CC2)n(-c2ccc(F)cc2)n1 [3/117] | 7 µM |
| Cc1cc(C(=O)N2CCN(c3cc(Cl)ccc3C)CC2)n(-c2cccc(Cl)c2)n1 [3/70] | 12.5 µM |
| COc1cccc(-n2nc(C)cc2C(=O)N2CCN(c3ccccc3C)CC2)c1 [3/134] | 4.3 µM |
| Cc1cc(C(=O)N2CCN(c3ccccn3)CC2)n(-c2ccccc2)n1 [3/107] | 12.5 µM |
| Cc1ccc(C)c(N2CCN(C(=O)c3cc(C)nn3-c3ccccc3)CC2)c1 [3/108] | 3.5 µM |
| Cc1cc(C(=O)N2CCN(c3cccc(C)c3C)CC2)n(-c2cccc(Cl)c2)n1 [3/122] | 7.5 µM |
| CSc1ccccc1N1CCN(C(=O)c2cc(C)nn2-c2ccccc2)CC1 [3/12] | 3 µM |

Continued, values first:

| IC50 | Compound |
| --- | --- |
| 0.9 µM | Cc1cc(C(=O)N2CCN(c3cccc(CO)c3)CC2)n(-c2ccccc2)n1 [Example E132, [4-(3-Hydroxymethylphenyl)piperazin-1-yl](5-methyl-2-phenyl-2H-pyrazol-3-yl)methanone] |
| 2.9 µM | COc1cc(OC)cc(N2CCN(C(=O)c3c(F)c(F)nn3-c3ccccc3)CC2)c1 [Example E139, [4-(3,5-dimethoxyphenyl)piperazin-1-yl](4,5-difluoro-2-phenyl-2H-pyrazol-3-yl)methanone] |
| 22 µM | COc1cc(OC)cc(N2CCN(C(=O)c3cc(N4CCCCC4)nn3-c3ccccc3)CC2)c1 [Example E138, [4-(3,5-dimethoxyphenyl)piperazin-1-yl][5-(piperid-1-yl)-2-phenyl-2H-pyrazol-3-yl)methanone] |
| 0.9 µM | COc1cc(OC)cc(N2CCN(C(=O)c3cc(N4CCC4)nn3-c3ccccc3)CC2)c1 [Example E129, [5-(Azetidin-1-yl)-2-phenyl-2H-pyrazol-3-yl][4-(3,5-dimethoxyphenyl)piperazin-1-yl]methanone] |
| 12.9 µM | COc1cc(OC)cc(N2CCN(C(=O)c3cc(-c4ccsc4C=O)nn3-c3ccccc3)CC2)c1 [Example E114, 3-{5-[4-(3,5-Dimethoxyphenyl)piperazine-1-carbonyl]-1-phenyl-1H-pyrazol-3-yl}thiophene-2-carboxaldehyde] |
| 3.2 µM | N-{{3-{[4-(3,5-Dimethoxyphenyl)piperazin-1-yl]carbonyl}-2-phenyl-2H-pyrazin-5-yl}glycine tert-butyl ester [Example E137] |
| 1 µM | NC(=O)c1cccc(N2CCN(C(=O)c3ccnn3-c3ccccc3)CC2)c1 [Example E133, 3-[4-(2-Phenyl-2H-pyrazole-3-carbonyl)piperazin-1-yl]benzamide] |
| 20.2 µM | Cc1cc(C(=O)N2CCN(c3cccc(Cl)c3)CC2)n(-c2ccc([N+](=O)[O-])cc2)n1 [Example E49, [4-(3-Chlorophenyl)piperazin-1-yl][5-methyl-2-(4-nitrophenyl)-2H-pyrazol-3-yl]-methanone] |
| 1.55 µM | Cc1ccc(C)c(-n2nc(C)cc2C(=O)N2CCN(c3cccc(Cl)c3)CC2)c1 [Example E47, [4-(3-Chlorophenyl)piperazin-1-yl][2-(2,5-dimethylphenyl)-5-methyl-2H-pyrazol-3-yl]methanone] |
| < 25 µM | COc1cc(OC)cc(N2CCN(C(=O)c3cc(C(O)C4CCCC4)nn3-c3ccccc3)CC2)c1 (stereo not drawn) [Example E124, [5-(Cyclopentylhydroxymethyl)-2-phenyl-2H-pyrazol-3-yl][4-(3,5-dimethoxy-phenyl)piperazin-1-yl]methanone] |
| 2.5 µM | COc1cc(OC)cc(N2CCN(C(=O)c3cc(COCCF)nn3-c3ccccc3)CC2)c1 [Example E123, [4-(3,5-Dimethoxyphenyl)piperazin-1-yl][5-(2-fluoroethoxymethyl)-2-phenyl-2H-pyrazol-3-yl]methanone] |
| 2 µM | COc1cccc(N2CCN(C(=O)c3cc(C)nn3-c3ccccc3)CC2)n1 [Example E8, [4-(6-Methoxypyrid-2-yl)piperazin-1-yl](5-methyl-2-phenyl-2H-pyrazol-3-yl)-methanone] |
| 0.5 µM | COc1cc(OC)cc(N2CCN(C(=O)c3cc(CC#N)nn3-c3ccccc3)CC2)c1 [Example E135, (5-Cyanomethyl-2-phenyl-2H-pyrazol-3-yl)[4-(3,5-dimethoxyphenyl)piperazin-1-yl]methanone] |
| 3 µM | CCOC(=O)/C=C/c1cc(C(=O)N2CCN(c3cc(OC)cc(OC)c3)CC2)n(-c2ccccc2)n1 [Example E112, Ethyl E-3-{5-[4-(3,5-dimethoxyphenyl)piperazine-1-carbonyl]-1-phenyl-1H-pyrazol-3-yl}acrylate] |
| 20 µM | COC(=O)CCC(=O)Nc1cccc(N2CCN(C(=O)c3cc(C)nn3-c3ccccc3)CC2)c1 [Example E83, Methyl N-{3-[4-(5-methyl-2-phenyl-2H-pyrazole-3-carbonyl)piperazin-1-yl]-phenyl}succinamate] |
| 4.1 µM | CCC(O)c1cc(C(=O)N2CCN(c3cc(OC)cc(OC)c3)CC2)n(-c2ccccc2)n1 (stereo not drawn) [Example E125, [4-(3,5-Dimethoxyphenyl)piperazin-1-yl][5-(1-hydroxypropyl)-2-phenyl-2H-pyrazol-3-yl]methanone] |
| 1.5 µM | C=CCNc1cc(C(=O)N2CCN(c3cc(OC)cc(OC)c3)CC2)n(-c2ccccc2)n1 [Example E130, (5-Allylamino-2-phenyl-2H-pyrazol-3-yl)[4-(3,5-dimethoxyphenyl)piperazin-1-yl]methanone] |
| 3.5 µM | O=C(c1cc(Br)nn1-c1ccc(Br)cc1)N1CCN(c2cccc(Cl)c2)CC1 [Example E64, [5-Bromo-2-(4-bromophenyl)-2H-pyrazol-3-yl][4-(3-chlorophenyl)piperazin-1-yl]methanone] |
| 16.5 µM | Cc1cc(C(=O)N2CCN(c3cncc(O)c3)CC2)n(-c2ccccc2)n1 [Example E140, [4-(5-hydroxypyrid-3-yl)piperazin-1-yl](5-methyl-2-phenyl-2H-pyrazol-3-yl)-methanone] |
| 17.9 µM | COc1cc(OC)cc(N2CCN(C(=O)c3cc(CN)nn3-c3ccccc3)CC2)c1 [Example E120, (5-Aminomethyl-2-phenyl-2H-pyrazol-3-yl)[4-(3,5-dimethoxyphenyl)piperazin-1-yl]methanone] |
| 1.3 µM | Cc1cc(C(=O)N2CCN(c3cccc(OC(F)F)c3)CC2)n(-c2ccccc2)n1 [Example E136, [4-(3-Difluoromethoxyphenyl)piperazin-1-yl](5-methyl-2-phenyl-2H-pyrazol-3-yl)methanone hydrochloride] |
| 9.2 µM | COCOCc1cc(C(=O)N2CCN(c3cccc(C(N)=O)c3)CC2)n(-c2ccccc2)n1 [Example E113, 3-[4-(5-Methoxymethoxymethyl-2-phenyl-2H-pyrazole-3-carbonyl)piperazin-1-yl]benzamide] |
